From the supplement of paper PMC10307832

What was measured:
Experiment in all cases: relative viability (nuclei count vs DMSO), 5 days (fraction); higher = more cells survive
[1] = compound: C1CC1C(=O)NC2=NNC3=C2C=CC(=C3)C4=CC(=CC=C4)C(=O)NC5CC5 [XMD13-2] + CC(=O)c1c(C)c2cnc(Nc3ccc(N4CCNCC4)cn3)nc2n(C2CCCC2)c1=O [Palbociclib] (partner 0.5 µM)
How it was run: (§1)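 Lung cancer cell lines in 1536-well plates got either a single drug or a fixed anchor-drug dose together with five library-drug doses (not always all listed) in √10 steps, by pin tool, on the day after seeding. Nuclei were counted after 5 days, and relative viability is the treated-to-vehicle ratio of nuclei counts. Values are medians of duplicate plates.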

[2] = compound: C1CC1C(=O)NC2=NNC3=C2C=CC(=C3)C4=CC(=CC=C4)C(=O)NC5CC5 [XMD13-2] + Nc1ncn([C@H]2C[C@H](O)[C@@H](CO)O2)c(=O)n1 [Decitabine] (partner 2 µM)
How it was run: as §1

[3] = compound: Cc1nc(Nc2ncc(C(=O)Nc3c(C)cccc3Cl)s2)cc(N2CCN(CCO)CC2)n1 [Dasatinib] + N=C(N)NC(=N)NCCc1ccccc1 [Phenformin] (partner 250 µM)
How it was run: as §1

[4] = compound: Cc1nc(Nc2ncc(C(=O)Nc3c(C)cccc3Cl)s2)cc(N2CCN(CCO)CC2)n1 [Dasatinib] + O=C(c1cc(Cc2n[nH]c(=O)c3ccccc23)ccc1F)N1CCN(C(=O)C2CC2)CC1 [Olaparib] (partner 8 µM)
How it was run: as §1

Cell Line	relative viability ([1]; first compound 0.05 µM)	relative viability ([1]; first compound 0.1581 µM)	relative viability ([1]; first compound 0.5 µM)	relative viability ([1]; first compound 1.581 µM)	relative viability ([1]; first compound 5 µM)	relative viability ([2]; first compound 0.05 µM)	relative viability ([2]; first compound 0.1581 µM)	relative viability ([2]; first compound 0.5 µM)	relative viability ([2]; first compound 1.581 µM)	relative viability ([2]; first compound 5 µM)	relative viability ([3]; first compound 0.005 µM)	relative viability ([3]; first compound 0.01581 µM)	relative viability ([3]; first compound 0.05 µM)	relative viability ([3]; first compound 0.1581 µM)	relative viability ([3]; first compound 0.5 µM)	relative viability ([4]; first compound 0.005 µM)	relative viability ([4]; first compound 0.01581 µM)	relative viability ([4]; first compound 0.05 µM)	relative viability ([4]; first compound 0.1581 µM)	relative viability ([4]; first compound 0.5 µM)
NCI-H1355	0.442	0.365	0.42	0.398	0.425	0.358	0.385	0.386	0.379	0.375	0.435	0.391	0.432	0.352	0.325	0.747	0.541	0.73	0.582	0.442
NCI-H1395	0.757	0.634	0.631	0.656	0.715	0.845	0.738	0.753	0.661	0.706	0.398	0.435	0.369	0.305	0.304	0.431	0.46	0.376	0.355	0.311
NCI-H1437	0.297	0.299	0.335	0.327	0.255	0.604	0.569	0.541	0.55	0.578	0.322	0.207	0.261	0.222	0.148	0.636	0.624	0.656	0.566	0.532
NCI-H1650	0.29	0.399	0.385	0.332	0.312	0.363	0.457	0.413	0.409	0.52	0.401	0.302	0.319	0.217	0.178	0.741	0.614	0.571	0.442	0.282
NCI-H1651	0.543	0.507	0.508	0.527	0.503	0.642	0.642	0.63	0.609	0.81	0.355	0.285	0.308	0.35	0.241	0.178	0.175	0.174	0.17	0.16
NCI-H1666	0.629	0.685	0.67	0.665	0.675	0.738	0.734	0.689	0.666	0.735	0.517	0.26	0.548	0.498	0.451	0.756	0.752	0.73	0.782	0.676
NCI-H1734	0.413	0.332	0.361	0.358	0.297	0.529	0.484	0.561	0.487	0.528	0.314	0.328	0.288	0.249	0.235	0.601	0.479	0.509	0.367	0.196
NCI-H1755	0.468	0.444	0.457	0.474	0.409	0.703	0.719	0.665	0.736	0.667	0.477	0.46	0.423	0.352	0.218	0.806	0.577	0.68	0.408	0.279
NCI-H1792	0.773	0.691	0.686	0.765	0.687	0.625	0.507	0.581	0.551	0.48	0.198	0.394	0.415	0.135	0.0671	0.385	0.348	0.411	0.2	0.0885
NCI-H1793	0.357	0.34	0.327	0.324	0.273	0.517	0.481	0.581	0.431	0.507	0.319	0.314	0.313	0.264	0.2	0.69	0.404	0.385	0.367	0.521
NCI-H1915	0.56	0.509	0.529	0.481	0.509	0.261	0.268	0.251	0.256	0.268	0.339	0.313	0.266	0.17	0.164	0.267	0.231	0.235	0.151	0.149
NCI-H1944	0.323	0.312	0.325	0.351	0.322	0.438	0.436	0.493	0.474	0.482	0.185	0.149	0.15	0.154	0.123	0.415	0.298	0.332	0.191	0.135
NCI-H1975	0.77	0.607	0.538	0.678	0.61	0.373	0.381	0.412	0.414	0.333	0.362	0.347	0.348	0.257	0.188	0.707	0.723	0.706	0.448	0.216
NCI-H1993	0.641	0.484	0.722	0.606	0.547	0.625	0.552	0.663	0.632	0.669	0.416	0.487	0.473	0.525	0.554	1.08	1.13	1.23	0.895	0.794
NCI-H2009	0.244	0.229	0.215	0.204	0.153	0.372	0.394	0.427	0.449	0.387	0.554	0.47	0.366	0.206	0.187	0.715	0.731	0.772	0.556	0.127
NCI-H2023	0.436	0.373	0.439	0.328	0.363	0.255	0.214	0.215	0.22	0.195	0.355	0.331	0.291	0.224	0.173	0.43	0.456	0.377	0.378	0.379
